Laboratory results from ChEMBL document CHEMBL2169806, “Design, synthesis, and pharmacological evaluation of N-acylhydrazones and novel conformationally constrained compounds as selective and potent orally active phosphodiesterase-4 inhibitors” (J Med Chem, 2012).
The source made the active and inactive calls. No cut-off for these calls is given here.

How the values were obtained:
[1] = tested on: Mus musculus; test: Antiinflammatory activity in A/J mouse assessed as inhibition of mononuclear cell accumulation in bronchoalveolar space at 45 umol/kg, po administered 1 hr prior to LPS-challenge measured after 18 hrs relative to vehicle-treated control; type: functional, organism-based; conditions: Lung
[2] = tested on: Mus musculus; test: Antiinflammatory activity in A/J mouse assessed as inhibition of LPS-induced airway elastance provoked by methacholine at 45 umol/kg, po administered 1 hr prior to LPS-challenge measured after 18 hrs relative to vehicle-treated control; type: functional
[3] = tested on: Mus musculus; test: Antiinflammatory activity in A/J mouse lung assessed as inhibition of LPS-induced IL6 production at 45 umol/kg, po administered 1 hr prior to LPS-challenge measured after 18 hrs relative to vehicle-treated control; type: functional
[4] = tested on: Mus musculus; test: Antiinflammatory activity in A/J mouse assessed as inhibition of eosinophils accumulation in bronchoalveolar space at 45 umol/kg, po administered 1 hr prior to LPS-challenge measured after 18 hrs relative to vehicle-treated control; type: functional, organism-based; conditions: Lung
[5] = Inhibition of bovine PDE4 using [3H]cAMP as substrate; set-up: species or system Bos taurus
[6] = tested on: Mus musculus; test: Antiinflammatory activity in A/J mouse lung assessed as inhibition of LPS-induced TNFalpha production at 45 umol/kg, po administered 1 hr prior to LPS-challenge measured after 18 hrs relative to vehicle-treated control; type: functional
[7] = tested on: Mus musculus; test: Antiinflammatory activity in A/J mouse assessed as inhibition of neutrophil accumulation in bronchoalveolar space at 45 umol/kg, po administered 1 hr prior to LPS-challenge measured after 18 hrs relative to vehicle-treated control; type: functional; conditions: Lung
[8] = tested on: Mus musculus; test: Antiinflammatory activity in A/J mouse assessed as inhibition of leukocyte accumulation in bronchoalveolar space at 45 umol/kg, po administered 1 hr prior to LPS-challenge measured after 18 hrs relative to vehicle-treated control; type: functional; conditions: Lung
[9] = tested on: PBMC; test: Antiinflammatory activity in human PBMC assessed as inhibition of LPS-induced TNFalpha production after 24 hrs by ELISA; type: functional, cell-based
[10] = tested on: Mus musculus; test: Antiinflammatory activity in A/J mouse assessed as inhibition of LPS-induced airway resistance provoked by methacholine at 45 umol/kg, po administered 1 hr prior to LPS-challenge measured after 18 hrs relative to vehicle-treated control; type: functional
[11] = tested on: Mus musculus; test: Proemetic activity in A/J mouse assessed as reversal of xylazine/katamine-induced anesthesia at 1 to 50 umol/kg, sc administered 30 mins prior xylazine/ketamine-administration; type: ADME, organism-based; conditions: in vivo, 0.5 h

IC50 [5]: 800 nM
Structure (SMILES): COc1ccc(C2CNC(=O)C2)cc1OC1CCCC1 (stereo unspecified) [ROLIPRAM]
inhibition [1]: Active
inhibition in vivo at 45 µmol/kg [2]: 96%
inhibition in vivo at 45 µmol/kg [3]: 54%
inhibition [4]: Active
inhibition in vivo at 45 µmol/kg [6]: 69%
inhibition in vivo at 45 µmol/kg [7]: 70%
inhibition in vivo at 45 µmol/kg [8]: 70%
EC50 [9]: 130 nM
inhibition in vivo at 45 µmol/kg [10]: 95%
Activity [11]: Toxic
